In US20130197023A1, “NEUROPROTECTION BY PHARMACOLOGICAL CHAPERONING OF NICOTINIC ACETYLCHOLINE RECEPTORS” (priority 2012, published 2013):
Where “and” joins values, the source holds several entries; their conditions need not be identical. Identical values can stand only once. Entries after “also recorded” stand apart in the source; their conditions may differ. Like-named read-outs stand apart in the source and are kept apart here.

What was measured:
α4-GFPβ4-WT nAChRs = biological target: T1, α4-GFPβ4-WT nAChRs (Mus musculus, UniProt O70174+Q8R493); test: Whole-cell patch clamp of ACh currents in cortical neurons transfected with α4-GFPβ4-WT; format: cell-based
T1 construct: expressed in transfected cells; host or cells: mouse cortical neurons (primary culture)
Protocol: (§1) To correlate the fluorescence based insertion measurements with electrophysiological measurements, we performed whole-cell patch clamp recording from neurons in the preparation used for our fluorescence experiments, transfected either with α4-GFPβ4-WT or with α4-GFPβ4-R348C nAChRs. The successfully transfected neurons were identified with green fluorescence (FIG. 6. A, D of Richards et al.). Puffs of 300 μM ACh (0.1 s, 20 psi), typically give maximal currents in previous experiments and therefore provide a measure of nAChR number. ACh evoked inward currents in 100% (8/8) and 92% (11/12) of neurons transfected with α4-GFPβ4-WT and α4-GFPβ4-R348C nAChRs, respectively (FIG. 6B, 6E of Richards et al.). The α4-GFPβ4-R348C nAChR currents (120±33 pA, n=12) were only 40% of α4-GFPβ4-WT nAChR currents (310±72 pA, n=8) (p=0.02) (FIG. 6C of Richards et al.). Because variations among the size of neurons could complicate the data, we calculated current density (dividing ACh currents divided by membrane capacitance). The current density of […] (16.3±2.1 pA/pF, n=8) (p=0.001) (FIG. 6F of Richards et al.). Thus in cortical neurons, the R348C mutation produces a fairly consistent ˜2-fold decrease in α4β4-insertion rate and ˜2.5 fold decrease in ACh-induced currents.

α4-GFPβ4-R348C nAChRs = biological target: T2, α4-GFPβ4-R348C nAChRs (Mus musculus, UniProt O70174+Q8R493, R348C); test: Whole-cell patch clamp of ACh currents in cortical neurons transfected with α4-GFPβ4-R348C; format: cell-based
T2 construct: expressed in transfected cells; host or cells: mouse cortical neurons (primary culture)
Protocol: as §1

ATF6 = format: cell-based, mouse
Protocol: (§2) Mouse Neuro-2a cells were cultured using standard tissue culture techniques and maintained in 45% DMEM, 45% OptiMEM and 10% FBS. Plasmid concentrations used for transfection were as follows: 500 ng of each nAChR subunit, 75 ng of pCS2-mcherry, 250 ng of Sec24D constructs, 100 ng of pDsRed2-ER, 250 ng of GaIT-eCFP and 500 ng of ATF6-eGFP. 90,000 cells were plated in poly-D-lysine coated 35 mm MatTek glass bottom imaging dishes. The following day, plasmid DNA was mixed with cationic lipids by adding appropriate DNA concentrations to 4 μl of Expressfect transfection reagent in 200 μl DMEM final volume and incubated for 20 min at room temperature to form cationic lipid-DNA complexes. DMEM+DNA-lipid complexes were added to Neuro-2a cells in 1 ml of DMEM+10% FBS and incubated at 37° C. for 4 h. Dishes were rinsed 2× with DMEM, then filled with 3 ml of DMEM+10% FBS and incubated at 37° C. for 48 h. Nicotine, cytisine or DHβE was added at appropriate concentrations during the change of medium following 4 h incubation with Expressfect-plasmid DNA complexes.

ER exit sites (ERES) = format: cell-based, mouse
Protocol: as §2
Neuro-2a cells were co-transfected with 500 ng each of α4-mcherry and β2-wt nAChR subunits and 250 ng of the ERES marker, Sec24D-eGFP. Each cell was focused to a plane where the maximum ERES were visualized. Sequential images of eGFP and mcherry fluorescence were obtained and linearly unmixed. For quantification, ERES regions of interest (ROIs) were demarcated using intensity-based thresholding and counted for each cell using the particle analysis feature in ImageJ version 1.44 or later. The fluorescence intensity was obtained for each ERES body within the cells and average ERES intensity was plotted. Error bars for ERES measurements are ±standard error of mean (SEM) and p values are based on a 2-tailed t test.

Neuro-2a cells [1] = format: cell-based, mouse
Protocol: (§3) Neuro-2a cells were transfected with α4-eGFP (500 ng)+β2wt (500 ng)+GaIT-mcherry (250 ng) or pDSred2-ER (100 ng) and cells were incubated for 48 h with appropriate concentrations of nicotine, cytisine or DHβE.
In ImageJ, background was subtracted, and DSred2-ER fluorescence was thresholded and demarcated for each cell.

Neuro-2a cells [2] = format: cell-based, mouse; remark: listed apart in the source
Protocol: as §3
Two color fluorescence signals were separated with a dichroic and optical filters aligned in the emission path where green and red emission was separately aligned to the two halves of an EMCCD. Post-acquisition processing of images used Metamorph to demarcate TGN bodies and to extract number, size and intensity statistics.

α4-eGFPβ2-wt nAChRs [3] = biological target: T3, α4-eGFPβ2-wt nAChRs (Mus musculus, UniProt O70174+Q9ERK7); format: cell-based
T3 construct: expressed in transfected cells; host or cells: mouse Neuro-2a cells
Protocol: Neuro-2a cells were plated on 12 mm glass coverslips within 35 mm plastic bottom cell culture dishes. The following day, cells were transfected with 500 ng α4-eGFP and 500 ng β2-wt nAChR subunits. 24 to 48 hr later, glass coverslips were transferred to dishes on the microscope stage. Green fluorescence was visualized with an upright microscope (BX50WI, Olympus) and UV illumination with appropriate excitation filters. Agonist-induced currents were tested at a holding potential of −65 mV using a focal, relatively rapid drug application system designed to minimize desensitization (Xiao et al., 2009). We applied drugs from the lowest to highest concentration at 3 min intervals to minimize desensitization. Whole-cell patch-clamp recordings were with a MultiClamp 700B amplifier, a 1322 analog-to-digital converter, and pCLAMP 9.2 software (all from Axon Instruments, Molecular Devices). Data were sampled at 10 kHz and filtered at 2 kHz.
The intrapipette solution contained (in mM): 135 potassium gluconate, 5 KCl, 5 EGTA, 0.5 CaCl2, 10 HEPES, 2 Mg-ATP, and 0.1 GTP; the pH was adjusted to 7.2 with Tris base and the osmolarity to 300 mOsm with sucrose. The extracellular solution contained (in mM): 140 NaCl, 5 KCl, 2 CaCl2, 1 MgCl2, 10 HEPES, and 10 glucose; pH was adjusted to 7.3 with Tris base. The Nernst potential for Cl^− in the intrapipette solution is −82.9 mV. The bath was continuously perfused with extracellular solution (ECS) at room temperature (23±1° C.). The patch electrodes had resistances of 5 to 8 MΩ. The junction potential between the patch pipette and the bath solutions was nulled just before forming a gΩ seal. Series resistance was monitored and compensated by 70-80% throughout recordings. The data were ignored if the series resistance (15-30 MΩ) changed by >20% during the recording session.

α4-eGFPβ2-wt nAChRs [4] = biological target: T3, α4-eGFPβ2-wt nAChRs; format: cell-based; remark: listed apart in the source
Source text: Details of the quantification method have been previously described (Srinivasan et al., 2011). Briefly, PM fluorescence was extracted as follows: Raw TIRF images were converted to background-subtracted images and the ER fluorescence was thresholded and selected. ER fluorescence was then subtracted from the original image to generate images with PM fluorescence signals. These procedures yielded a dataset of several hundred thousand pixel intensities over the 15-50 cells in each experimental group. Fluorescence intensities are simply the sum of pixel values for either the PM or the ER or the ER+PM (using whole TIRF footprint images). Mean PM fluorescence intensity was derived by dividing the total fluorescence intensity for each experimental group by the number of imaged cells and normalized to intensity of untreated cells. Ratios of fluorescence intensities for the whole TIRF footprint (ER+PM) to ER were used to determine the post-Golgi fraction of receptors. For PM integrated density measurements, rather than plotting SEMs (which would be indistinguishably small on the plots), we have used “error bars” to depict 99% confidence intervals based on a two-tailed t-test. Measurements from drug treated cells were normalized to values of untreated cells imaged on the same day. DHβE TIRF experiments were performed on a different day from nicotine and cytisine experiments.

α4β2 nAChRs = α4β2 nAChRs (Mus musculus, UniProt O70174+Q9ERK7)
Source text: For NFRET experiments, Neuro-2a cells were transfected with GaIT-eCFP+α4-mcherry+β2-eGFP subunits. GaIT-eCFP was used to label the TG, TGN (Schaub et al., 2006). Cells transfected with α4-mcherryβ2wt or α4wtβ2-eGFP nAChRs were included in every imaging session to control for pixel saturation and spectral bleedthrough. Live cells were imaged using an Eclipse C1si laser scanning confocal microscope. During image acquisition, cells were focused to a plane where the GaIT-eCFP fluorescence was best visualized. Images with emission spectra for eCFP, eGFP and mcherry were acquired in 5-nm bins between 470 and 620 nm. 439, 488 and 561 nm laser lines were used to excite eCFP, eGFP and mcherry respectively. Images were linearly unmixed using reference spectra for eCFP, eGFP and mcherry with emission maxima at 477, 508 and 608 nm. Reference spectra were acquired from Neuro-2a cells transfected with either GaIT-eCFP or α4-mcherryβ2wt or α4wtβ2-eGFP during the same imaging session. Linear unmixing was used to separate all three emission spectra from each image. Linearly unmixed images were compiled into donor spectral bleed-through stacks, acceptor spectral bleed-through stacks, and sample image stacks.
The PixFRET ImageJ plugin was used to determine the eGFP and mcherry spectral bleedthrough (BT) values and to calculate the net FRET (nF) (equation 1) and normalized FRET (NFRET) at each pixel. With the background and bleed-through corrections set, the nF for each pixel as described by equation 1 was calculated and the data were presented as 32-bit images. nF was divided by the square root of eGFP and mcherry intensities (equation 2) to obtain the normalized FRET (NFRET) value at each pixel. FRET normalization was used to control for large differences in fluorophore expression within subcellular regions and between different cells in a dish.
where, nF=net FRET, IFRET=mcherry sensitized emission with 488 nm excitation, IeGFP=eGFP emission with 488 nm excitation, BTeGFP=spectral bleedthrough of eGFP emission into mcherry emission spectra at 488 nm excitation, Imcherry=mcherry emission with 561 nm excitation and BTmcherry=spectral bleedthrough of mcherry emission into eGFP emission spectra at 561 nm excitation. IFRET, IeGFP and Imcherry were obtained from Neuro-2a cells transfected with GaIT-eCFP+α4-mcherry+β2-eGFP. BTeGFP and BTmcherry values were obtained from Neuro-2a cells transfected with α4-mcherry+β2wt and α4wt+β2-eGFP respectively.
Histograms of NFRET (x-axis) versus number of pixels (y-axis) of each imaged cell were compiled for either the whole cell sections or the TG, TGN ROIs, demarcated by intensity-based thresholding of GaIT-eCFP fluorescence. Frequency histograms obtained in this way (omitting values of zero) were merged for all cells in each experimental group and fitted to two Gaussian components such that a minimum goodness of fit (R^2) value of 0.995 was achieved. Ratios of area under the curve for the two Gaussian components with high and low mean NFRET values were used to determine changes in receptor stoichiometry between experimental groups: NFRET histograms were fitted to Gaussian components, yielding the total pixel area under either the A1 (low mean NFRET fit) or A2 (high mean NFRET fit) components. For quantitative measurements of stoichiometry, we compared the fractional area (FA) for the low NFRET component in each case as given by the following equation:
where, FA=fractional area, A1=area under the curve for low mean NFRET Gaussian component and A2=area under the curve for high mean NFRET Gaussian component.
Due to variability resulting from cell passage number, we imaged untreated control cells on the same day to compare and evaluate the effects of drug exposure on stoichiometry.

NMDA receptor = details: in vivo; cited from earlier work
[5] = compared with untreated cells, 48 h
[6] = compared to untreated cells, 48 h exposure

Sequence of α4β2 nAChRs (O70174 31-629): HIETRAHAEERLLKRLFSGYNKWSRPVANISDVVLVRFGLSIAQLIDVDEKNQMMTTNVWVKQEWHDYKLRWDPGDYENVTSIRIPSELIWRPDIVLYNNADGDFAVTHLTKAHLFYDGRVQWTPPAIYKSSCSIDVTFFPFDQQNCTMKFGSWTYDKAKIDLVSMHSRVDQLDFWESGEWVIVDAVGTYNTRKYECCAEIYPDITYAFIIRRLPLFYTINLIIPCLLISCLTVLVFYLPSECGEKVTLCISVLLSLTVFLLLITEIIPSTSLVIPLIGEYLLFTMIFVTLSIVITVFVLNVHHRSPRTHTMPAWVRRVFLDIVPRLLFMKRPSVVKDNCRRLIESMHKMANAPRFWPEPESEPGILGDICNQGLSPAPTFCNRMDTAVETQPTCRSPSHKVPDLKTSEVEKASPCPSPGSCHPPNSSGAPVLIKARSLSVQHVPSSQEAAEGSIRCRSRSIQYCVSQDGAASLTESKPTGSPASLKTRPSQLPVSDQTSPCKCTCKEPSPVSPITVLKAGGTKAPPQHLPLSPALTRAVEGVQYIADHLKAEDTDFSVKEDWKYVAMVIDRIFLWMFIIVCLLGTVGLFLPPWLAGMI
Sequence of α4β2 nAChRs (Q9ERK7 26-501): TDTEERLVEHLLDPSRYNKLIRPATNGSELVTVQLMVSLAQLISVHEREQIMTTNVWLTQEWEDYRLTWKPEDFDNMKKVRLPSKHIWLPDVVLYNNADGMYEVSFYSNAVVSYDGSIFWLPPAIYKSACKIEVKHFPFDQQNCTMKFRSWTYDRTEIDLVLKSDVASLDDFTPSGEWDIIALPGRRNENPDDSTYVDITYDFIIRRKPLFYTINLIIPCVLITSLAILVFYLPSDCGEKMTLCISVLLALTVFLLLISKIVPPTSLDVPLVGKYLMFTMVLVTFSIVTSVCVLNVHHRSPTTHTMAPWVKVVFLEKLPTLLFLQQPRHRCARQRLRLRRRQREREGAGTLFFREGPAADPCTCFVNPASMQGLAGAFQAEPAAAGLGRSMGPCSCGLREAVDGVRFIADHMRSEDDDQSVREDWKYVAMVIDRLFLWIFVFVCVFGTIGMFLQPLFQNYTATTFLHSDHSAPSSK
T2 sequence (O70174 31-629, stated change not applied): as the sequence (O70174 31-629) above
T2 sequence (Q8R493 21-495 R348C): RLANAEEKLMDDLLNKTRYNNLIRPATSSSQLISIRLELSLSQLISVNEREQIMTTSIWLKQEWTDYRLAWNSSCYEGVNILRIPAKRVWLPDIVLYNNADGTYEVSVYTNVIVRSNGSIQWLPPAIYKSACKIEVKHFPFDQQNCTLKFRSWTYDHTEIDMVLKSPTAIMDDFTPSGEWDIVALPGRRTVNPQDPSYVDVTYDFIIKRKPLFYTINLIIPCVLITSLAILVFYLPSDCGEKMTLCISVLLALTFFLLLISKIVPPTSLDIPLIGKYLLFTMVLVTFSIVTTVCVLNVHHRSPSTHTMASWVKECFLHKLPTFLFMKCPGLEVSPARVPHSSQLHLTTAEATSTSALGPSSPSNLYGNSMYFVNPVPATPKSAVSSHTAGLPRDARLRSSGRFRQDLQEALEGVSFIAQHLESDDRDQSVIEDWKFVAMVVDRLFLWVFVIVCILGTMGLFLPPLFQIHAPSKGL
T1 sequence (O70174 31-629): as the sequence (O70174 31-629) above
T1 sequence (Q8R493 21-495): as the sequence (Q8R493 21-495 R348C) above, with C328R counted along it
T3 sequence (O70174 31-629): as the sequence (O70174 31-629) above
T3 sequence (Q9ERK7 26-501): as the sequence (Q9ERK7 26-501) above

SMILES: CC(=O)OCC[N+](C)(C)C [ACh]
- ACh evoked inward currents (α4-GFPβ4-WT nAChRs; 300 μM ACh puffs (0.1 s, 20 psi), α4-GFPβ4-WT): 310±72 pA
- neurons in which ACh evoked inward currents (α4-GFPβ4-WT nAChRs; 300 μM ACh, α4-GFPβ4-WT (8/8)): 100%
- current density (ACh currents divided by membrane capacitance) (α4-GFPβ4-WT nAChRs; 300 μM ACh, α4-GFPβ4-WT as printed): 6.3±1.4 pA/pF
- ACh evoked inward currents (α4-GFPβ4-R348C nAChRs; 300 μM ACh puffs (0.1 s, 20 psi), α4-GFPβ4-R348C): 120±33 pA
- neurons in which ACh evoked inward currents (α4-GFPβ4-R348C nAChRs; 300 μM ACh, α4-GFPβ4-R348C (11/12)): 92%
- current density (ACh currents divided by membrane capacitance) (α4-GFPβ4-R348C nAChRs; 300 μM ACh, α4-GFPβ4-R348C as printed): 16.3±2.1 pA/pF

SMILES: O=c1cccc2n1C[C@@H]1CNC[C@H]2C1 [Cytisine, cytisine]
- reduction in the ratio of nuclear to whole cell ATF6-eGFP fluorescence (ATF6): ~25%
- increase in ERES fluorescence / formation of ERES (ER exit sites (ERES)): ~2 fold
- effect on peripheral ER area (in words) (Neuro-2a cells [1]): reduced
- reduction in the average ER area (Neuro-2a cells [1]): ~1.4 fold
- Number of TGN bodies (Neuro-2a cells [2]): no effect
- effect on the average intensity of TGN bodies (in words) (Neuro-2a cells [2]): significantly reduced
- effect on the number of TGN bodies (in words) (Neuro-2a cells [2]): failed to significantly affect
- evoked currents as % of maximum currents induced by 500 μM nicotine (α4-eGFPβ2-wt nAChRs [3]): < 0.1%
- fraction of the total receptor population activated (α4-eGFPβ2-wt nAChRs [3]): < 0.1%
- increase in PM-localized nAChRs (α4-eGFPβ2-wt nAChRs [4]): 3 fold and ~3.5 fold
- increase in the footprint/ER ratio (α4-eGFPβ2-wt nAChRs [4]): ~1.5 fold and ~2 fold
- TG+TGN FA (fractional area of low NFRET component) (α4β2 nAChRs): 0.42
- whole cell FA (fractional area of low NFRET component) (α4β2 nAChRs): 0.30

SMILES: CO[C@H]1CC=C2CCN3CCC4=C(CC(=O)OC4)[C@]23C1 [DHβE, dihydro-β-erythroidine]
- reduction in the ratio of nuclear to whole cell ATF6-eGFP fluorescence (ATF6; 10 or 100 μM, 48 h (both concentrations)): ~23%
- increase in ERES fluorescence / formation of ERES (ER exit sites (ERES); compared to untreated control cells, co-expressed nAChRs): ~2 fold
- effect on peripheral ER area (in words) (Neuro-2a cells [1]; compared to untreated controls, 48 h): did not significantly affect
- effect on the average intensity of TGN bodies (in words) (Neuro-2a cells [2]; [5]): significantly reduced
- effect on the number of TGN bodies (in words) (Neuro-2a cells [2]; [5]): failed to significantly affect
- nAChR activation (in words) (α4-eGFPβ2-wt nAChRs [3]): activates no receptors
- effect on the footprint/ER ratio (in words) (α4-eGFPβ2-wt nAChRs [4]; [6]): no marked effects
- increase in the footprint/ER ratio (α4-eGFPβ2-wt nAChRs [4]; [6]): ~1.5 fold
- effect on PM-localized nAChRs (in words) (α4-eGFPβ2-wt nAChRs [4]; compared to untreated controls, 48 h exposure): small, but significant increase; also recorded: no marked effects
- TG+TGN FA (fractional area of low NFRET component) (α4β2 nAChRs; 10 μM DHβE, untreated cells 0.53): 0.37
- whole cell FA (fractional area of low NFRET component) (α4β2 nAChRs; 10 μM DHβE, untreated cells 0.54): 0.45
- effect on nAChR stoichiometry (α4β2 nAChRs; concentrations ranging from 0.1 to 1 μM): did not affect

SMILES: CNC1(c2ccccc2Cl)CCCCC1=O (centres unmarked) [ketamine]
- time within which antidepressant effects become established (NMDA receptor): 1 to 2 h
